From patent US20240226105A1 (priority 2021, published 2024)
“Also recorded” adds a separate entry of the source. Where two headings read alike, the source gives them in different places.

Tests used:
[1] = type: physicochemical
[2] = type: physicochemical; remark: listed apart in the source
[3] = cited from earlier work
[4] = type: physicochemical; remark: listed apart in the source
[5] = type: physicochemical; conditions: pH 4
[6] = type: physicochemical; remark: listed apart in the source
[7] = type: physicochemical; remark: listed apart in the source
[8] = type: physicochemical; remark: listed apart in the source

In the case of N=C1NC(O)C2C3OC4(O)O[C@@H](C(O)C2(N1)[C@@H]4O)C3(O)CO (stereo partly shown) [TTX, octahydro-12-(hydroxymethyl)-2-imino-5,9:7,10a-dimethano-10aH-(1,3)dioxocino(6,5-d)-pyrimidine-4,7,10,11,12-pentanol], the “solubility of TTX in a combination of organic solvents and acids” value [1] is reported as “below 30 μg/ml”, the “TTX Solubility” value ([1]; pH 3.7) is reported as “Not soluble” and the “TTX Solubility” value ([1]; pH 4.6) is reported as “Not soluble”. The “concentration up to which TTX was soluble” value [2] was “about 150 ug/mL”, the pKa [3] was 9.4 and the “TTX solubility (observation)” value [4] was “Deposits in the vial; also recorded: Partially solubilized; also recorded: Almost fully solubilized”. For the same compound, the “concentration up to which TTX was sufficiently soluble” value [5] was at least 300 µg/mL, the “concentration at which TTX was found to be solubilized” value [6] was 300 µg/mL and the “concentration at which TTX was found to be solubilized” value [7] was 300 µg/mL. The “solubility of TTX in pure organic solvents” value [8] was “below 30 μg/ml”.
